According to patent US9801380B2, “Low VOC gibberellin formulations” (Valent BioSciences Corporation, priority 2013, dated 2017):

Experiment: Stability tests: observation for solubility after mixing
Details: 5.95% GA3 TGAI
Description: The stability tests were performed as follows. The solvent was charged in a 150 mL glass beaker containing a magnetic stir bar. The solvent was warmed on a hot plate while stirring. The polysorbate surfactant was charged when the solvent temperature reached 30 to 38 degrees Celsius. The formulations were mixed until they were solubilized (1 to 4 minutes). Then the GA3 TGAI was added under stirring and the temperature was raised to 38 to 41 degrees Celsius. The heat was discontinued and the formulations were mixed for 30 to 50 minutes. The formulations were then observed for solubility.

C=C1C[C@]23C[C@@]1(O)CC[C@H]2[C@@]12C=C[C@H](O)[C@@](C)(C(=O)O1)[C@H]2[C@@H]3C(=O)O [GA3, gibberellic acid]
Solubility of GA3 in the formulation (Formulation B (triethyl citrate)): not soluble
Solubility of GA3 in the formulation (Formulations A and D (PEG 300, PEG 400)): soluble
